According to US20120269913A1, “CRUDE CAFFEINE COMPLEX, IMPROVED FOOD PRODUCTS USING THE CRUDE CAFFEINE COMPLEX, AND METHODS OF USE THEREOF” (priority 2009, published 2012):
Read-outs that look alike come from different tables or passages of the source.

Legend:
[1] = ORAC assay adapted for the linoleate microemulsion system, combination with α-tocopherol; details: in combination with α-tocopherol; 100% = additive, >100% = synergistic
Description: Using an ORAC assay adapted for the linoleate microemulsion system (Sim, W. L. S. et al., Journal of Agricultural and Food Chemistry 57: 3409-3414 (2009)), we determined the antioxidant activity of α-tocopherol (a form of vitamin E) combined with crude caffeine, ascorbic acid, and chlorogenic acid. Data were expressed as relative ORAC: a relative ORAC of 100% means that the antioxidant activity of the mixture equaled the sum of each component's antioxidant activity (additive effect), whereas a relative ORAC greater than 100% means that the antioxidant activity of the mixture was greater than the sum of each component's antioxidant activity (synergistic effect).
In a 15-mL test tube, methyl linoleate (1.2 g), Tween-20 (2.9 g), n-butanol (1.5 g), and potassium phosphate buffer (4.4 g) were vortexed until the resulting solution was clear. […] A control well containing 200 μL of microemulsion and 40 μL of phosphate buffer was used to normalize the fluorescence reading. The reaction kinetics were monitored at 37° C. for 2 h, with readings every 2 min, by a Synergy HT microplate fluorescent reader (Biotek Instruments Inc.). The microplate reader was fitted with an excitation filter at 485 nm, an emission filter of 590 nm, and an oxygen sensor biosystem, and the plate was shaken for 20 s at low intensity before each reading to ensure sufficient mixing. […]

human adipocytes = assay: Glucose uptake (3H-2-deoxyglucose) in human adipocytes; format: cell-based; details: about 0.01 mg/mL, p<0.05
Description: (§1) The effect of the crude caffeine extract of Example 1 on glucose uptake in both human adipocytes (fat) and skeletal muscle cells (SMC) was tested (Zen Bio Research, Triangle Park, N.C.).
(§2) Data were analyzed by one-way ANOVA followed by Tukey's post hoc test for multiple comparisons. In FIG. 6, results are expressed as mean±SD. The asterisk * denotes P<0.05 compared with human skeletal muscle cells; the carrot top A denotes P<0.05 compared with untreated human adipocytes.
(§3) Glucose uptake. The in vitro effects of crude caffeine on glucose uptake were assessed with human adipocytes and skeletal muscle cells (Zen-Bio, Research Triangle Park, N.C.). Briefly, primary human subcutaneous adipocytes or primary human myoblasts were differentiated in 96-well microplates. […] All samples, including the positive and negative controls, were tested in triplicate. After a 2-h incubation at 37° C. and 5% CO2, the cells were washed with PBS and lysed. The cell lysate was mixed with scintillation fluid and radioactivity of each well was measured as counts per minute (CPM).

[2] = Oxygen radical absorbance capacity, hydrophilic fraction (ORAChydro); details: crude caffeine complex of Example 1 vs pure caffeine
Description: Oxygen radical absorbance capacity. To determine antioxidant values of the hydrophilic fraction (ORAChydro), 5 g crude caffeine was extracted with 20 mL acetone/water (50:50 v/v) on an orbital shaker at room temperature for 1 h. The mixtures were centrifuged at 1972×g in a Rotanta 460R centrifuge (GMI, Ramsey, Minn.). […] The excitation wavelength was set at 485 (±20) nm and the emission wavelength set at 530 (±25) nm. To determine antioxidant values of the lipophilic fraction (ORAClipo), 5 g crude caffeine was extracted twice with 10 mL hexane/dichloromethane (50:50 v/v).

COX-2 enzyme = target: T1, COX-2 enzyme (Homo sapiens, UniProt P35354); assay: COX-2 inhibition (oxygen consumption); format: biochemical
T1 sequence (P35354 18-604): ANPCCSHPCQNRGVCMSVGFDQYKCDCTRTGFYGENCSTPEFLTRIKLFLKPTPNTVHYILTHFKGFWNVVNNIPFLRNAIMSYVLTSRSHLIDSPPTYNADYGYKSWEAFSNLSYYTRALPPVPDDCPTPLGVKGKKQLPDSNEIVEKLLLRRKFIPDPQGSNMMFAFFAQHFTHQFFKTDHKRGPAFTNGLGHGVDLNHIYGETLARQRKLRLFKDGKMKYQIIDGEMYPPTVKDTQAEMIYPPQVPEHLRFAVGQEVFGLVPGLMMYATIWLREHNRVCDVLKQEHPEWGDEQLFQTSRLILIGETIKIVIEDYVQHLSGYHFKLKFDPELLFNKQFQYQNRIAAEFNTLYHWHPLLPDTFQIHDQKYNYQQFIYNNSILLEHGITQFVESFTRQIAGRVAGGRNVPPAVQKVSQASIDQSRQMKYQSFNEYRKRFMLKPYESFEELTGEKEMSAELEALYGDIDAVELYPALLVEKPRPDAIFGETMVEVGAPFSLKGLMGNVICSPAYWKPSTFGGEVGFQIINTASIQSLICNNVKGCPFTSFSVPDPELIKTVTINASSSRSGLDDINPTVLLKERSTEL
Description: As discussed above, the ability to inhibit the COX-2 enzyme is understood as providing anti-inflammatory activities. […] IC50 indicates the effective dose needed to achieve about 50 percent inhibition of the COX-2 enzyme.
COX-2 inhibition. Oxygen consumption was measured in the reaction chamber of an Oxytherm (Hansatech Instrumental, Norfolk, England) at 37° C. The reaction mixture consisting of 0.5 mL Tris buffer (0.1 M, pH 8.0), 5 μL heme [100 μM in dimethyl sulfoxide (DMSO)], and 10 μL of COX-2 enzyme was incubated for 1 min. Five microliters of each sample (in DMSO or ethanol) was added and the mixture was incubated for an additional 1 min. The assay was initiated by adding 5 μL arachidonic acid, and the oxygen concentration was monitored. The initial oxygen consumption rate was obtained from the kinetic curve. COX-2 inhibition was expressed as the inhibitor concentration at which the initial oxygen consumption rate decreased by 50% (IC50).

[3] = tested on: human skeletal muscle cells; assay: Glucose uptake (3H-2-deoxyglucose) in human skeletal muscle cells; format: cell-based; details: about 0.01 mg/mL, p<0.05
Description: as §1, §2, §3

Row | Compound | relative ORAC [1] [%] | increase in glucose uptake as compared to a control (human adipocytes) | ORAChydro [2] [μmol TE/g] | COX-2 inhibitory activity (in words) (COX-2 enzyme) | COX-2 inhibitory activity (in words) (COX-2 enzyme; listed as Pure caffeine) | increase in glucose uptake as compared to a control [3]
1 | O=C1O[C@H]([C@@H](O)CO)C(O)=C1O [ascorbic acid] | 100 |  |  |  |  | 
2 | O=C(/C=C/c1ccc(O)c(O)c1)O[C@@H]1C[C@](O)(C(=O)O)C[C@@H](O)[C@H]1O [chlorogenic acid] | 168 |  |  |  |  | 
3 | Cn1c(=O)c2c(ncn2C)n(C)c1=O [pure caffeine, 1,3,7-trimethylxanthine] |  | no such effect | 5 | no such inhibitory activity | did not inhibit COX-2 activity | no such effect
